Experimental data from ChEMBL document CHEMBL1687876, “Quercetin reduces neutrophil recruitment induced by CXCL8, LTB4, and fMLP: inhibition of actin polymerization” (J Nat Prod, 2011).
Active and inactive are the calls of the source.

Key:
[1] = test system: Neutrophil; assay: Antiinflammatory activity in human neutrophil assessed as inhibition of LTB4-induced neutrophil chemoattraction 10 nM after 2 hrs by Boyden chamber v; format: functional, cell-based
[2] = test system: Neutrophil; assay: Antiinflammatory activity in human neutrophil assessed as inhibition of fMLP-induced neutrophil chemoattraction 10 nM after 2 hrs by Boyden chamber v; format: functional, cell-based
[3] = test system: Neutrophil; assay: Antiinflammatory activity in human neutrophil assessed as inhibition of fMLP-induced neutrophil chemoattraction 300 to 1000 nM after 2 hrs by Boyden chamber v; format: functional, cell-based
[4] = test system: Neutrophil; assay: Antiinflammatory activity in human neutrophil assessed as inhibition of fMLP-induced neutrophil chemoattraction 100 nM after 2 hrs by Boyden chamber v; format: functional, cell-based
[5] = test system: Mus musculus; assay: Inhibition of CXCL5-induced neutrophil recruitment in Swiss mouse at 300 mg/kg, sc administered pre-inflammatory stimulus after 6 hrs by Newbauer chamber using Romanowsky stain; format: functional, organism-based; design: dose 300 mg/kg
[6] = test system: Mus musculus; assay: Inhibition of CXCL5-induced neutrophil recruitment in Swiss mouse at 30 mg/kg, sc administered pre-inflammatory stimulus after 6 hrs by Newbauer chamber using Romanowsky stain; format: functional, organism-based; design: dose 30 mg/kg
[7] = test system: Neutrophil; assay: Inhibition of CXCR2 protein expression in human neutrophil at 100 nM after 30 mins by flow cytometry; format: functional, cell-based
[8] = test system: Neutrophil; assay: Inhibition of fMLP-induced actin polymerization in human neutrophil at 100 nM after 30 mins by DAPI staining based immunofluorescence; format: functional, cell-based
[9] = test system: Mus musculus; assay: Inhibition of LTB4-induced neutrophil recruitment in Swiss mouse at 100 mg/kg, sc administered pre-inflammatory stimulus after 6 hrs by Newbauer chamber using Romanowsky stain; format: functional, organism-based; design: dose 100 mg/kg
[10] = test system: Neutrophil; assay: Antiinflammatory activity in human neutrophil assessed as inhibition of CXCL8-induced neutrophil chemoattraction 100 nM after 2 hrs by Boyden chamber v; format: functional, cell-based
[11] = test system: Mus musculus; assay: Inhibition of LTB4-induced neutrophil recruitment in Swiss mouse at 30 mg/kg, sc administered pre-inflammatory stimulus after 6 hrs by Newbauer chamber using Romanowsky stain; format: functional, organism-based; design: dose 30 mg/kg
[12] = test system: Mus musculus; assay: Inhibition of CXCL1-induced neutrophil recruitment in Swiss mouse at 30 mg/kg, sc administered pre-inflammatory stimulus after 6 hrs by Newbauer chamber using Romanowsky stain; format: functional, organism-based; design: dose 30 mg/kg
[13] = test system: Neutrophil; assay: Inhibition of CXCL8-induced actin polymerization in human neutrophil at 100 nM after 30 mins by DAPI staining based immunofluorescence; format: functional, cell-based
[14] = test system: Neutrophil; assay: Inhibition of CXCR1 protein expression in human neutrophil at 100 nM after 30 mins by flow cytometry; format: functional, cell-based
[15] = test system: Mus musculus; assay: Inhibition of fMLP-induced neutrophil recruitment in Swiss mouse at 30 mg/kg, sc administered pre-inflammatory stimulus after 6 hrs by Newbauer chamber using Romanowsky stain; format: functional, organism-based; design: dose 30 mg/kg
[16] = test system: Mus musculus; assay: Inhibition of CXCL1-induced neutrophil recruitment in Swiss mouse at 300 mg/kg, sc administered pre-inflammatory stimulus after 6 hrs by Newbauer chamber using Romanowsky stain; format: functional, organism-based; design: dose 300 mg/kg
[17] = test system: Neutrophil; assay: Inhibition of FLPR1 protein expression in human neutrophil at 100 nM after 30 mins by flow cytometry; format: functional, cell-based
[18] = test system: Mus musculus; assay: Inhibition of fMLP-induced neutrophil recruitment in Swiss mouse at 300 mg/kg, sc administered pre-inflammatory stimulus after 6 hrs by Newbauer chamber using Romanowsky stain; format: functional, organism-based; design: dose 300 mg/kg
[19] = test system: Neutrophil; assay: Antiinflammatory activity in human neutrophil assessed as inhibition of LTB4-induced neutrophil chemoattraction 300 to 1000 nM after 2 hrs by Boyden chamber v; format: functional, cell-based
[20] = test system: Neutrophil; assay: Inhibition of BLT1 protein expression in human neutrophil at 100 nM after 30 mins by flow cytometry; format: functional, cell-based
[21] = test system: Neutrophil; assay: Antiinflammatory activity in human neutrophil assessed as inhibition of LTB4-induced neutrophil chemoattraction 100 nM after 2 hrs by Boyden chamber v; format: functional, cell-based
[22] = test system: Neutrophil; assay: Antiinflammatory activity in human neutrophil assessed as inhibition of LTB4-induced neutrophil chemoattraction 30 nM after 2 hrs by Boyden chamber v; format: functional, cell-based
[23] = test system: Neutrophil; assay: Antiinflammatory activity in human neutrophil assessed as inhibition of fMLP-induced neutrophil chemoattraction 30 nM after 2 hrs by Boyden chamber v; format: functional, cell-based
[24] = test system: Mus musculus; assay: Inhibition of CXCL1-induced neutrophil recruitment in Swiss mouse at 100 mg/kg, sc administered pre-inflammatory stimulus after 6 hrs by Newbauer chamber using Romanowsky stain; format: functional, organism-based; design: dose 100 mg/kg
[25] = test system: Neutrophil; assay: Antiinflammatory activity in human neutrophil assessed as inhibition of CXCL8-induced neutrophil chemoattraction 30 nM after 2 hrs by Boyden chamber v; format: functional, cell-based
[26] = test system: Mus musculus; assay: Inhibition of LTB4-induced neutrophil recruitment in Swiss mouse at 300 mg/kg, sc administered pre-inflammatory stimulus after 6 hrs by Newbauer chamber using Romanowsky stain; format: functional, organism-based; design: dose 300 mg/kg
[27] = test system: Neutrophil; assay: Antiinflammatory activity in human neutrophil assessed as inhibition of CXCL8-induced neutrophil chemoattraction 300 to 1000 nM after 2 hrs by Boyden chamber v; format: functional, cell-based
[28] = test system: Neutrophil; assay: Inhibition of LTB4-induced actin polymerization in human neutrophil at 100 nM after 30 mins by DAPI staining based immunofluorescence; format: functional, cell-based
[29] = test system: Mus musculus; assay: Inhibition of CXCL5-induced neutrophil recruitment in Swiss mouse at 100 mg/kg, sc administered pre-inflammatory stimulus after 6 hrs by Newbauer chamber using Romanowsky stain; format: functional, organism-based; design: dose 100 mg/kg
[30] = test system: Mus musculus; assay: Inhibition of fMLP-induced neutrophil recruitment in Swiss mouse at 100 mg/kg, sc administered pre-inflammatory stimulus after 6 hrs by Newbauer chamber using Romanowsky stain; format: functional, organism-based; design: dose 100 mg/kg
[31] = test system: Neutrophil; assay: Antiinflammatory activity in human neutrophil assessed as inhibition of CXCL8-induced neutrophil chemoattraction 10 nM after 2 hrs by Boyden chamber v; format: functional, cell-based

Measured: inhibition

O=c1c(O)c(-c2ccc(O)c(O)c2)oc2cc(O)cc(O)c12
inactive: [6] | [7] | [11] | [12] | [14] | [17] | [20]
active: all other assays above
